Reference: patent publication US6989389B2, “Aryl ether substituted imidazoquinolines” (3M Innovative Properties Co., priority 2000, dated 2006)
Where a name gives a salt, the structure may show the parent alone. Read-outs that look alike come from different tables or passages of the source.

System: Peripheral blood mononuclear cells (PBMC)
Assay: Cytokine Induction in Human Cells (in vitro human blood cell system, IFN and TNF secreted into culture media)
Type: cell-based
Parameters: key to Lowest Effective Concentration (μM) Tumor Necrosis Factor / Lowest Effective Concentration (μM) Interferon: *: no induction was seen at any of the tested concentrations
Settings: 18 to 24 hours, tested 30-0.014 μM; for minimal effective concentration: Homo sapiens, PBMC
Source text: An in vitro human blood cell system is used to assess cytokine induction. Activity is based on the measurement of interferon and tumor necrosis factor (α) (IFN and TNF, respectively) secreted into culture media as described by Testerman et. al. In “Cytokine Induction by the Immunomodulators Imiquimod and S-27609”, Journal of Leukocyte Biology, 58, 365-372 (September, 1995).
Whole blood from healthy human donors is collected by venipuncture into EDTA vacutainer tubes. Peripheral blood mononuclear cells (PBMC) are separated from whole blood by density gradient centrifugation using Histopaque®-1077. Blood is diluted 1:1 with Dulbecco's Phosphate Buffered Saline (DPBS) or Hank's Balanced Salts Solution (HBSS). The PBMC layer is collected and washed twice with DPBS or HBSS and resuspended at 4×10^6 cells/mL in RPMI complete. The PBMC suspension is added to 48 well flat bottom sterile tissue culture plates (Costar, Cambridge, Mass. or Becton Dickinson Labware, Lincoln Park, N.J.) containing an equal volume of RPMI complete media containing test compound.
The compounds are solubilized in dimethyl sulfoxide (DMSO). The DMSO concentration should not exceed a final concentration of 1% for addition to the culture wells. The compounds are generally tested at concentrations ranging from 30-0.014 μM.
The solution of test compound is added at 60 μM to the first well containing RPMI complete and serial 3 fold dilutions are made in the wells. The PBMC suspension is then added to the wells in an equal volume, bringing the test compound concentrations to the desired range (30-0.014 μM). The final concentration of PBMC suspension is 2×10^6 cells/mL. The plates are covered with sterile plastic lids, mixed gently and then incubated for 18 to 24 hours at 37° C. in a 5% carbon dioxide atmosphere.
Following incubation the plates are centrifuged for 10 minutes at 1000 rpm (˜200×g) at 4° C. The cell-free culture supernatant is removed with a sterile polypropylene pipet and transferred to sterile polypropylene tubes. Samples are maintained at −30 to −70° C. until analysis. The samples are analyzed for interferon (α) by ELISA and for tumor necrosis factor (α) by ELISA or IGEN Assay.
Interferon (α) concentration is determined by ELISA using a Human Multi-Species kit from PBL Biomedical Laboratories, New Brunswick, N.J. Results are expressed in pg/mL.
Tumor necrosis factor (α) (TNF) concentration is determined using ELISA kits available from Biosource International, Camarillo, Calif. Alternately, the TNF concentration can be determined by Origen® M-Series Immunoassay and read on an IGEN M-8 analyzer from IGEN International, Gaithersburg, Md. The immunoassay uses a human TNF capture and detection antibody pair from Biosource International, Camarillo, Calif. Results are expressed in pg/mL.
The table below lists the lowest concentration found to induce interferon and the lowest concentration found to induce tumor necrosis factor for each compound.

[1] = lowest concentration found to induce interferon (α), ELISA, read-out: Lowest Effective Concentration (μM) Interferon
[2] = lowest concentration found to induce tumor necrosis factor (α), ELISA or IGEN assay
[3] = lowest concentration found to induce tumor necrosis factor (α), ELISA or IGEN assay, read-out: Lowest Effective Concentration (μM) Tumor Necrosis Factor
[4] = lowest concentration found to induce interferon (α), ELISA

| Structure (SMILES) | minimal effective concentration [1] | Lowest Effective Concentration (μM) Tumor Necrosis Factor [2] | minimal effective concentration [3] | Lowest Effective Concentration (μM) Interferon [4] |
| --- | --- | --- | --- | --- |
| CCCCc1nc2c(N)nc3c(c2n1CCOCc1ccc(C(C)(C)C)cc1)CCCC3 [Example 95] | 1.11 µM | * | – | – |
| CC(C)(Cn1cnc2c(N)nc3ccccc3c21)OCc1ccccc1C#N [Example 39] | 1.11 µM | * | – | – |
| Nc1nc2ccccc2c2c1ncn2COCCOCc1ccccc1 [Example 84] | 0.37 µM | * | – | – |
| Nc1nc2ccccc2c2c1ncn2CCOCc1ccccc1 [Example 42] | 0.37 µM | * | – | – |
| CCCCc1nc2c(N)nc3c(c2n1CCOCc1cccc(C#N)c1)CCCC3 [Example 94] | 0.01 µM | – | 3.33 µM | – |
| Nc1nc2ccccc2c2c1ncn2CCOCCCc1cccc(C(=O)O)c1 [Example 12, 3-{3-[2-(4-Amino-1H-imidazo[4,5-c]quinolin-1-yl)ethoxy]propyl}benzoic acid bis(trifluoroacetate)] | 10 µM | * | – | – |
| CCCCc1nc2c(N)nc3c(c2n1CCOCc1cccc(C(F)(F)F)c1)CCCC3 [Example 92] | 3.33 µM | – | 3.33 µM | – |
| Cc1cccc(COCCOCn2cnc3c(N)nc4ccccc4c32)c1 [Example 86] | 0.37 µM | * | – | – |
| Cc1ccc(COCCCCn2cnc3c(N)nc4ccccc4c32)cc1 [Example 77] | 0.12 µM | * | – | – |
| CC(C)C(COCc1cccc(C#N)c1)n1cnc2c(N)nc3ccccc3c21 (stereo not shown) [Example 65] | 1.11 µM | * | – | – |
| CCC(COCc1ccc(C)cc1)n1cnc2c(N)nc3ccccc3c21 (stereo not shown) [Example 49] | 0.04 µM | * | – | – |
| CC(Cn1cnc2c(N)nc3ccccc3c21)OCc1ccc(Cl)c(Cl)c1 (stereo not shown) [Example 53] | 1.11 µM | * | – | – |
| Nc1nc2ccccc2c2c1ncn2CC(OCc1ccccc1)c1ccccc1 (stereo not shown) [Example 28] | 10 µM | * | – | – |
| CCC(COCc1ccc(Br)cc1)n1cnc2c(N)nc3ccccc3c21 (stereo not shown) [Example 27] | 0.12 µM | * | – | – |
| CCC(COCc1ccccc1Cl)n1cnc2c(N)nc3ccccc3c21 (stereo not shown) [Example 40] | 0.12 µM | * | – | – |
| CCCCc1nc2c(N)nc3c(c2n1CCOCc1ccc(C#N)cc1)CCCC3 [Example 93] | 0.12 µM | – | 10 µM | – |
| Nc1nc2ccccc2c2c1ncn2CC(OCc1ccc(Cl)cc1)c1ccccc1 (stereo not shown) [Example 29] | – | * | – | * |
| COc1ccc(OC(C)Cn2cnc3c(N)nc4ccccc4c32)cc1 (stereo not shown) [Example 99] | 0.37 µM | * | – | – |
| CN(C)c1cccc(CCCOCCn2cnc3c(N)nc4ccccc4c32)c1 [Example 15, 1-(2-{3-[3-(Dimethylamino)phenyl]propoxy}ethyl)-1H-imidazo[4,5-c]quinolin-4-amine dihydrochloride] | 0.12 µM | * | – | – |

| Structure (SMILES) | minimal effective concentration [1] | Lowest Effective Concentration (μM) Tumor Necrosis Factor [2] | minimal effective concentration [3] | Lowest Effective Concentration (μM) Interferon [4] |
| --- | --- | --- | --- | --- |
| C[C@@H](COCc1ccc(C(C)(C)C)cc1)Cn1cnc2c(N)nc3ccccc3c21 [Example 111] | 3.33 µM | * | – | – |
| COC(=O)c1ccc(COCC(C)n2cnc3c(N)nc4ccccc4c32)cc1 (stereo not shown) [Example 71] | 3.33 µM | * | – | – |
| CC(Cn1cnc2c(N)nc3ccccc3c21)Oc1ccccc1C#N (stereo not shown) [Example 97] | 1.11 µM | * | – | – |
| Nc1nc2ccccc2c2c1ncn2CCOCCCc1ccc(C(=O)O)cc1 [Example 14, 4-{3-[2-(4-Amino-1H-imidazo[4,5-c]quinolin-1-yl)ethoxy]propyl}benzoic acid trifluoroacetate] | 10 µM | – | 10 µM | – |
| CCOCc1nc2c(N)nc3ccccc3c2n1CCOCCCCCCOCCCCc1ccccc1 [Example 20, 2-(Ethoxymethyl)-1-(2-{[6-(4-phenylbutoxy)hexyl]oxy}ethyl)-1H-imidazo[4,5-c]quinoline-4-amine] | – | * | – | * |
| CC(Cn1cnc2c(N)nc3ccccc3c21)Oc1ccc(C(C)(C)CC(C)(C)C)cc1 (stereo not shown) [Example 100] | – | * | – | * |
| CC(n1cnc2c(N)nc3ccccc3c21)C(C)(C)OCc1ccccc1 (stereo not shown) [Example 80] | – | * | – | * |
| CC[C@H](COCc1ccc(C#N)cc1)n1cnc2c(N)nc3ccccc3c21 [Example 142, 4-({[(2R)-2-(4-Amino-1H-imidazo[4,5-c]quinolin-1-yl)butyl]oxy}methyl)benzonitrile] | 0.04 µM | – | 0.04 µM | – |
| Nc1nc2ccccc2c2c1ncn2CC(OCCCCOc1ccccc1)c1ccccc1 (stereo not shown) [Example 79] | – | * | – | * |
| CC(C)(Cn1cnc2c(N)nc3ccccc3c21)OCc1cccc(Cl)c1 [Example 35] | – | * | – | * |
| CC(C)C(COCc1ccc(Cl)c(Cl)c1)n1cnc2c(N)nc3ccccc3c21 (stereo not shown) [Example 62] | – | – | 3.33 µM | * |
| N#Cc1cccc(COCCOCn2cnc3c(N)nc4ccccc4c32)c1 [Example 88] | 0.37 µM | – | 30 µM | – |
| CC(C)C(COCc1ccc(Cl)cc1)n1cnc2c(N)nc3ccccc3c21 (stereo not shown) [Example 60] | 1.11 µM | * | – | – |
| Cc1ccc(COCCOCn2cnc3c(N)nc4ccccc4c32)cc1 [Example 85] | 0.37 µM | * | – | – |
| Cc1ccc([N+](=O)[O-])c(OCC(C(C)C)n2cnc3c(N)nc4ccccc4c32)c1 (stereo not shown) [Example 55] | – | * | – | * |
| CCC(COc1ccccc1)n1cnc2c(N)nc3ccccc3c21 (stereo not shown) [Example 106, 1-[(1-Phenoxymethyl)propyl]-1H-imidazo[4,5-c]quinolin-4-amine] | 0.37 µM | * | – | – |
| C[C@@H](COCc1cccc(Cl)c1)Cn1cnc2c(N)nc3ccccc3c21 [Example 112] | – | * | – | * |
| CCOCc1nc2c(N)nc3ccccc3c2n1CCOCCCOCc1ccccc1 [Example 21, 1-{2-[3-(Benzyloxy)propoxy]ethyl}-2-(ethoxymethyl)-1H-imidazo[4,5-c]quinolin-4-amine] | 0.12 µM | * | – | – |
| CC(C)C(COCc1cccc(C(F)(F)F)c1)n1cnc2c(N)nc3ccccc3c21 (stereo not shown) [Example 63] | – | * | – | * |
